Consider four compounds from publication doi:10.1101/2025.06.29.662197v2 (biorxiv, 2026).

Holding throughout (assay type): biochemical
In experiment [1] the target is human PKR (Carna Bioscience # 05-156) (Homo sapiens, UniProt P19525). Description: LanthaScreen TR-FRET kinase assay, GFP-eIF2alpha.
Experiment [2] concerns the target human GCN2 (full length, purified; Carna Bioscience # 05-153) (Homo sapiens, UniProt Q9P2K8). Kind of experiment: LanthaScreen TR-FRET kinase assay, GFP-eIF2alpha. In general terms: In TR-FRET formats the signal depends on donor and acceptor labels being close together.
In experiment [3] the target is human HRI (Carna Bioscience # 05-154) (Homo sapiens, UniProt Q9BQI3). Description: LanthaScreen TR-FRET kinase assay, GFP-eIF2alpha.
Sequence of human HRI (Carna Bioscience # 05-154) (Q9BQI3 whole entry): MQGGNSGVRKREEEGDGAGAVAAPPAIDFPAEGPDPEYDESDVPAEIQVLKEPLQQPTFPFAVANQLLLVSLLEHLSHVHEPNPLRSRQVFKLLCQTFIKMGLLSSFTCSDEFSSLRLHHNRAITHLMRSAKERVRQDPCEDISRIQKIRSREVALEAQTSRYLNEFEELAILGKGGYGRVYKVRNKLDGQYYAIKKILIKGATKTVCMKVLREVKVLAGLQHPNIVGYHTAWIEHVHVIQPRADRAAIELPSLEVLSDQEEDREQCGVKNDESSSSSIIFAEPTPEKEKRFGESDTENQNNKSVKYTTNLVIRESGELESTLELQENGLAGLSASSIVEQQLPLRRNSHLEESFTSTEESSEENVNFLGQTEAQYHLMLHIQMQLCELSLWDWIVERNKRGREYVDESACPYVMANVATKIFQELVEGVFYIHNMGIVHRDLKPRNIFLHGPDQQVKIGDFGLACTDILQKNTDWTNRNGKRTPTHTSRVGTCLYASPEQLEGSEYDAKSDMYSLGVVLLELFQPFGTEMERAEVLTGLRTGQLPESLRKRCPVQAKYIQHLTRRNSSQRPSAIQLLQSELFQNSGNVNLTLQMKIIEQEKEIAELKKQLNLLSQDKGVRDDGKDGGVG
Experiment [4] deals with full-length human GCN2 (N-terminal twin StrepII tag) (Homo sapiens, UniProt Q9P2K8). Description: in vitro kinase assay, immunoblot of p-Ser51 eIF2alpha. The settings on record: 100 uM ATP, 2 uM full-length eIF2alpha, 30 °C, 20 min, no tRNA. In general terms: A western blot detects proteins with antibodies after separation by electrophoresis.
Sequence of full-length human GCN2 (N-terminal twin StrepII tag) (Q9P2K8 whole entry): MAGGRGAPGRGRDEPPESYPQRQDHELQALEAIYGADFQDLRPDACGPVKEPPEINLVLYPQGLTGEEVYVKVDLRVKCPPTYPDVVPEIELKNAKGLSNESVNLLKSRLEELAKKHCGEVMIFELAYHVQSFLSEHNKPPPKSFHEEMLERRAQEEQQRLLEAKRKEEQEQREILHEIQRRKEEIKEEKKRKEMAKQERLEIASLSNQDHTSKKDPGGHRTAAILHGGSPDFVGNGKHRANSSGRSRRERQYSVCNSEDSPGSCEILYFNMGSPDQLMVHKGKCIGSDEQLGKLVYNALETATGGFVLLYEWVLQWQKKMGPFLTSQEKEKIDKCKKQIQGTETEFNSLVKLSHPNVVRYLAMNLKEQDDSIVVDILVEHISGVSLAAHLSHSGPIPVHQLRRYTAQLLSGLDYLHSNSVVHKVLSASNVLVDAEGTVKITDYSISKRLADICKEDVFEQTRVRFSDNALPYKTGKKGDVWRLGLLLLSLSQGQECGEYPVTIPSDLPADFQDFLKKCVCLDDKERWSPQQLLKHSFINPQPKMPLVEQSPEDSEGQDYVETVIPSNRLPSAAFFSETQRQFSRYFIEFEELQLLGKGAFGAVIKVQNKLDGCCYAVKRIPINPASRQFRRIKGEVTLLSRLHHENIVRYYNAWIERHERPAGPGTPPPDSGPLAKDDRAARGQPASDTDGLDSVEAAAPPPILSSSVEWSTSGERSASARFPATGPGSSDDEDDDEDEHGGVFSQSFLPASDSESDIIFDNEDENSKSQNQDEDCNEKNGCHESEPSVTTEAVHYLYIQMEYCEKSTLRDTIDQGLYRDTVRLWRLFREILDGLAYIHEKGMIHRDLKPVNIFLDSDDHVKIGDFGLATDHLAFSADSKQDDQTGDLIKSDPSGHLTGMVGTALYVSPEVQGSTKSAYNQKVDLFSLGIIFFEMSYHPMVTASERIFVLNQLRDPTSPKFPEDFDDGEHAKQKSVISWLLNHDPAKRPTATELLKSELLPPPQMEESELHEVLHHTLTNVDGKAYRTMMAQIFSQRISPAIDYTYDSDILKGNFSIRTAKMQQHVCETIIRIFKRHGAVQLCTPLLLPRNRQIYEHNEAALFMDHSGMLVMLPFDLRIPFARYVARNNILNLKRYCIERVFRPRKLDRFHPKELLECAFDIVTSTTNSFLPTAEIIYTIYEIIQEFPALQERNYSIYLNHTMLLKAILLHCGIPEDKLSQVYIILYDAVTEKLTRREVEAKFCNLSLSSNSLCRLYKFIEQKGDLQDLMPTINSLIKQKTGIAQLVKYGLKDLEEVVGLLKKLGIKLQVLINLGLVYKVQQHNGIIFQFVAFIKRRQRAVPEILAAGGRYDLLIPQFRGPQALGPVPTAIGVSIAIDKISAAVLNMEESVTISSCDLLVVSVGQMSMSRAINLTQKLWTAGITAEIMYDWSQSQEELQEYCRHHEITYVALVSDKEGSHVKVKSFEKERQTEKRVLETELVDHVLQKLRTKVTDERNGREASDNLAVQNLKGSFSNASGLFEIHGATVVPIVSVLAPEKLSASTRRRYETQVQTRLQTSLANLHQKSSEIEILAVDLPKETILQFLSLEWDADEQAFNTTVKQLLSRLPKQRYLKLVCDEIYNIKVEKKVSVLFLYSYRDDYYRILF

Molecules are shown by their SMILES.

Sequence of human GCN2 (full length, purified; Carna Bioscience # 05-153) (Q9P2K8 whole entry): as above
Sequence of human PKR (Carna Bioscience # 05-156) (P19525 2-551): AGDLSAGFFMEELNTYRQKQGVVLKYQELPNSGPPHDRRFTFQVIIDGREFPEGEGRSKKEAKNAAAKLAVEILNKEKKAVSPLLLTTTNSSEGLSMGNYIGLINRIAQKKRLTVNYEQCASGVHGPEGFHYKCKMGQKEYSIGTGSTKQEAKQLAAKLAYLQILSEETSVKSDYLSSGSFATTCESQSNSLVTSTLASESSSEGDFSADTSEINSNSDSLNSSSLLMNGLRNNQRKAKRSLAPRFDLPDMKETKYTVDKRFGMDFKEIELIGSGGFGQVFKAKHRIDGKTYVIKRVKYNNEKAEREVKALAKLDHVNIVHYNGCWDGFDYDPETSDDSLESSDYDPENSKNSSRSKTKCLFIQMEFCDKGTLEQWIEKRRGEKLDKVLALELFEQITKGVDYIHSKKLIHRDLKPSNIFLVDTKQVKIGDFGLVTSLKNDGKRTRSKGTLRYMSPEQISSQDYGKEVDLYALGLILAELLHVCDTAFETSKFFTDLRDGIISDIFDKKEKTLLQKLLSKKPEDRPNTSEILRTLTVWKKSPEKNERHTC

Take `COc1ncc(Cl)cc1S(=O)(=O)Nc1ccc(F)c(C#Cc2cnc(N)nc2)c1F` [GCN2iB]: the values for the IC50 in experiment [1], in experiment [2] and in experiment [3] were 3.26 µM, 0.00155 µM and 0.00276 µM, respectively.
On to `Cc1nc(N)sc1-c1csc(Nc2ncccn2)n1` [compound 20, 4’-methyl-N∼2∼-2-pyrimidinyl-4,5’-bi-1,3-thiazole-2,2’-diamine], for which the IC50 was 3.75 µM in experiment [1] and above 3 µM in experiment [2]. For the same compound, the fold activation in experiment [4] is listed as ~ 40 fold.
Compound `CS(=O)(=O)c1ncc(-c2ccc(Br)cc2)cn1` [compound 21, 5-(4-bromophenyl)-2-(methylsulfonyl)pyrimidine] showed an IC50 in experiment [2] above 3 µM.
As for `Cc1nn(-c2ccccc2)c2sc(C(=O)Nc3ccc(S(=O)(=O)NCc4ccco4)cc3)cc12` [compound 18, N-(4-{[(furan-2-yl)methyl]sulfamoyl}phenyl)-3-methyl-1-phenyl-1H-thieno[2,3-c]pyrazole-5-carboxamide], the values for the IC50 in experiment [1] and in experiment [2] were 4.5 µM and above 3 µM, respectively.

Usually IC50 stands for the concentration at which inhibition is half-maximal. A high value points to weaker potency in that assay.
